One data set has as its system viable cells in culture. The experiment in a line: Cell viability assay (CellTiter-Glo Luminescent Cell Viability Assay, ATP quantitation). The conditions noted are these: percent of DMSO vehicle control. The class given is cell-based. On the technique in general: Cellular ATP, detected with luciferase, serves as a proxy for viable cell number.
Data set [1] concerns human TERT expression (hTERT mRNA transcripts). Put plainly: Quantitative real-time RT-PCR of hTERT mRNA transcripts in compound-treated cells. The class given is cell-based. From the text: Telomerase is a ribonucleoprotein complex composed of the catalytic protein subunit (human telomerase reverse transcriptase or hTERT) and the RNA template. hTERT expression level can be measured by PCR.
Quantitative Reverse Transcription PCR can be run according to procedures outlined in Yajima et al. (Yajima, T. et al. Quantitative Reverse Transcription-PCR Assay of the RNA Component of Human Telomerase Using the TaqMan Fluorogenic Detection System Clinical Chemistry, 44:12, 2441-2445, 1998).
The principle of real-time PCR was first described by Heid et al. (Heid C. A., Stevens J., Livak K. J., Williams P. M. Real time quantitative PCR. Genome Res., 6: 986-994, 1996). Briefly, amplification of the target sequence is monitored per PCR cycle by detecting the fluorescence signal emitted by an internal probe that is degraded by the 5′ nuclease activity of the Taq polymerase. The emission signal accumulates in each sample, and the Ct required to reach a given fluorescence threshold is determined (Ct stands for Cycle Threshold and is a measure of the number of PCR cycles that are required to amplify a target—thus, a lower Ct score means that there is more abundant hTERT mRNA). Thus, the C1 value of a sample inversely correlates to the quantity of the starting cDNA which correlates to the number of mRNA transcripts. Using the cDNA of known quantity, a standard curve can be generated and used to determine the starting amount of mRNA transcripts based on the […] of each sample.
Quantitative real-time PCR can be done on cDNA from test compound-treated and nontreated cells by use of a ABI Prism 7900 Sequence Detection System (PE Applied Biosystems, Foster City, CA) following the Assays-on-Demand protocol (PE Applied Biosystems, Foster City, CA). Quantitative data can be analyzed using the Sequence Detection System software version 2.1 (PE Applied Biosystems).
The following compounds were tested in assays designed to identify compounds that enhance human TERT expression. The compounds turned on human TERT expression in these assays.
(Quantitative PCR measures a nucleic acid by following its amplification.)
Further: test concentration or dose not given here.

Protocol for viable cells in culture: Cell viability is determined using a homogeneous method, such as CellTiter-Glo® Luminescent Cell Viability Assay (Promega Corporation, Madison, WI) to determine the number of viable cells in culture These assays are based on quantitation of the ATP present, which signals the presence of metabolically active cells. Luminescent values of compound treated cells are compared to that of cells treated with vehicle alone to determine the average cell viability as a percent of control.

With `COc1cc(C(Nc2ccccn2)c2ccc3cccnc3c2O)cc(Br)c1OC` (stereo not drawn) [Compound 1005], the “Average Cell Viability after 24 Hours (% DMSO)” value in the data set with viable cells in culture is recorded as 64.8 % DMSO. Besides, the “Average Number of hTERT Transcripts” value in data set [1] is on record as 55.17. The matching figures for `CCN(CC)c1ccc(C(NC(=O)C(C)C)c2cc(Cl)c3cccnc3c2O)cc1` (stereo not drawn) [Compound 1011]: 64.5 % DMSO and 14.2. Turning to `Cc1ccc(S(=O)(=O)Nc2ccc(O)c3ncccc23)cc1` [Compound 1091], in the data set on viable cells in culture, the “Average Cell Viability after 24 Hours (% DMSO)” value came out at 94.3 % DMSO. In addition, in data set [1], the “Average Number of hTERT Transcripts” value was found to be 91.89. The matching figures for `Oc1c(C(Nc2ccccn2)c2ccccc2Br)ccc2cccnc12` (stereo not drawn) [Compound 1007]: 68 % DMSO and 18.02. The matching figures for `O=[N+]([O-])c1cc(CN2CCN(c3ccccc3)CC2)c(O)c2ncccc12` [Compound 1029]: 32 % DMSO and 5.3. The matching figures for `O=C(NC(c1ccc2c(c1)OCO2)c1cc([N+](=O)[O-])c2cccnc2c1O)C1CCCCC1` (stereo not drawn) [Compound 1068]: 61.2 % DMSO and 21.41.

`CC(=O)NC(c1cccs1)c1cc(Cl)c2cccnc2c1O` (stereo not drawn) [Compound 1052]: in the data set on viable cells in culture, the “Average Cell Viability after 24 Hours (% DMSO)” value is 60.8 % DMSO. Besides, in data set [1], the “Average Number of hTERT Transcripts” value is 12.07. The matching figures for `CCCOCc1cc(CN2CCCCC2)c(O)c2ncccc12` [Compound 1100]: 56.1 % DMSO and 9.12. The matching figures for `Cc1ccnc(NC(c2ccc([N+](=O)O)cc2)c2ccc3ccc(C)nc3c2O)c1` (stereo not drawn) [Compound 1081]: 70.69 % DMSO and 18.87. The matching figures for `CCCCC(=O)NC(c1ccc(O)c(OCC)c1)c1cc([N+](=O)[O-])c2cccnc2c1O` (stereo not drawn) [Compound 1075]: 82.63 % DMSO and 83.26. For the compound `Cc1ccc(S(=O)(=O)Nc2cc(S(=O)(=O)c3ccc(C)cc3)c(O)c3ncccc23)cc1` [Compound 1093], the “Average Cell Viability after 24 Hours (% DMSO)” value in the data set with viable cells in culture came out at 66.5 % DMSO. In addition, the “Average Number of hTERT Transcripts” value in data set [1] was 160.48. The matching figures for `COc1ccc(C(NC(C)=O)c2cc(Cl)c3cccnc3c2O)cc1OC` (stereo not drawn) [Compound 1038]: 80.33 % DMSO and 28.95. The matching figures for `CC(=O)NC(c1ccccc1Cl)c1ccc2cccnc2c1O` (stereo not drawn) [Compound 1025]: 93.5 % DMSO and 113.98.

On to `Oc1c(Cl)cc(Cl)c2cccnc12` [Compound 1020], for which the “Average Cell Viability after 24 Hours (% DMSO)” value in the data set on viable cells in culture is reported as 25.1 % DMSO. Besides, in data set [1], the “Average Number of hTERT Transcripts” value is reported as 45.03. The matching figures for `COc1ccc(C(NC(=O)C(C)C)c2cc([N+](=O)[O-])c3cccnc3c2O)cc1` (stereo not drawn) [Compound 1073]: 80.1 % DMSO and 103.42. With `Cc1ccnc(NC(c2cccc([N+](=O)O)c2)c2ccc3ccc(C)nc3c2O)c1` (stereo not drawn) [Compound 1084], the “Average Cell Viability after 24 Hours (% DMSO)” value with viable cells in culture was determined as 65.08 % DMSO. Besides, in data set [1], the “Average Number of hTERT Transcripts” value was found to be 11.54.

With `Cc1cc(C)n(-c2ccc3c(Cl)cc(Cl)c(O)c3n2)n1` [Compound 1079], the “Average Cell Viability after 24 Hours (% DMSO)” value in the data set on viable cells in culture is reported as 71.22 % DMSO. In data set [1], the “Average Number of hTERT Transcripts” value is 98.36. `O=C(COc1ccccc1)NC(/C=C/c1ccccc1)c1cc(Cl)c2cccnc2c1O` (stereo not drawn) [Compound 1015]: the “Average Number of hTERT Transcripts” value in data set [1] is 63.93. As for `Cc1ccc(C(NC(=O)C2CCCCC2)c2ccc3cccnc3c2O)cc1` (stereo not drawn) [Compound 1047], the “Average Number of hTERT Transcripts” value in data set [1] was determined as 43.89. On the same count and under the same terms, under `CCCCC(=O)NC(c1ccc(OC)c(OC)c1)c1cc([N+](=O)[O-])c2cccnc2c1O` (stereo not drawn) [Compound 1053] stands 47.54; under `CCCC(=O)NC(c1ccc(N(CC)CC)cc1)c1cc(Cl)c2cccnc2c1O` (stereo not drawn) [Compound 1070], 68.65.

Take `CCC(=O)NC(c1ccc(OC)c(OC)c1)c1cc([N+](=O)[O-])c2cccnc2c1O` (stereo not drawn) [Compound 1028]: the “Average Cell Viability after 24 Hours (% DMSO)” value with viable cells in culture stood at 80.69 % DMSO. Further, in data set [1], the “Average Number of hTERT Transcripts” value stood at 65.66. As for `CCC(=O)NC(c1ccc(OC)c(OC)c1)c1cc(Cl)c2cccnc2c1O` (stereo not drawn) [Compound 1032], the “Average Number of hTERT Transcripts” value in data set [1] amounted to 39.96. The same measure, in the same setting: under `CC(=O)NC(c1ccc(C(C)C)cc1)c1cc(Cl)c2cccnc2c1O` (stereo not drawn) [Compound 1057] stands 12.42. On the same count and under the same terms, under `CCCC(=O)NC(c1ccco1)c1cc(Cl)c2cccnc2c1O` (stereo not drawn) [Compound 1077] stands 15.88. With `Cc1ccc(S(=O)(=O)Nc2cc(Cl)c(O)c3ncccc23)cc1` [Compound 1092], the “Average Number of hTERT Transcripts” value in data set [1] is 96.33. Same read-out and setting: under `CCC(=O)NC(c1ccccc1Cl)c1cc(Cl)c2cccnc2c1O` (stereo not drawn) [Compound 1041] stands 20.78. As to `CCCCC(=O)NC(c1ccc2c(c1)OCO2)c1cc([N+](=O)[O-])c2cccnc2c1O` (stereo not drawn) [Compound 1046], the “Average Cell Viability after 24 Hours (% DMSO)” value with viable cells in culture stood at 78 % DMSO. The “Average Number of hTERT Transcripts” value in data set [1] was determined as 158.46.

Turning to `CCCC(=O)NC(c1cccs1)c1cc([N+](=O)[O-])c2cccnc2c1O` (stereo not drawn) [Compound 1048], the “Average Number of hTERT Transcripts” value in data set [1] is recorded as 58.04.

Turning to `CC(=O)NC(c1cccs1)c1ccc2cccnc2c1O` (stereo not drawn) [Compound 1058], in data set [1], the “Average Number of hTERT Transcripts” value amounted to 47.99. Regarding `Oc1c(I)cc(I)c2cccnc12` [Compound 1018], in the data set on viable cells in culture, the “Average Cell Viability after 24 Hours (% DMSO)” value came to 56.9 % DMSO. Moreover, the “Average Number of hTERT Transcripts” value in data set [1] is listed as 105.41. As for `Oc1ccc(CN2CCN(c3cccc(Cl)c3)CC2)c2cccnc12` [Compound 1113], in data set [1], the “Average Number of hTERT Transcripts” value was 29.15. Still for that read-out and setting: under `CCN1CCN(Cc2ccc3cccnc3c2O)CC1` [Compound 1089] stands 38.29; under `COc1ccc(C(=O)NC(/C=C/c2ccccc2)c2cc(Cl)c3cccnc3c2O)cc1` (stereo not drawn) [Compound 1016], 10.9; under `COc1ccc(C(=O)NC(c2ccc(Cl)cc2)c2cc(Cl)c3cccnc3c2O)cc1` (stereo not drawn) [Compound 1014], 11.55. On the same count and under the same terms, under `CC(C)C(=O)NC(c1ccccc1)c1cc([N+](=O)[O-])c2cccnc2c1O` (stereo not drawn) [Compound 1110] stands 35.19; under `Oc1c(C(Nc2ccccn2)c2ccc(OC3CCCC3)cc2)ccc2cccnc12` (stereo not drawn) [Compound 1004], 12.11; under `Cc1ccc2ccc(C(Nc3ccccn3)c3cccc([N+](=O)[O-])c3)c(O)c2n1` (stereo not drawn) [Compound 1078], 36.96. Turning to `O=C(NC(c1ccc(Cl)cc1)c1ccc2cccnc2c1O)C1CCCCC1` (stereo not drawn) [Compound 1045], the “Average Cell Viability after 24 Hours (% DMSO)” value in the data set on viable cells in culture was 60.3 % DMSO. Moreover, the “Average Number of hTERT Transcripts” value in data set [1] was determined as 13.86. `COc1ccc(C(NC(=O)C2CCCCC2)c2cc([N+](=O)[O-])c3cccnc3c2O)cc1OC` (stereo not drawn) [Compound 1072]: the “Average Number of hTERT Transcripts” value in data set [1] worked out at 93.44. With `Oc1c(CN2CCN(c3cccc(Cl)c3)CC2)cc(Br)c2cccnc12` [Compound 1002], the “Average Cell Viability after 24 Hours (% DMSO)” value in the data set on viable cells in culture turned out to be 57.7 % DMSO. Besides, the “Average Number of hTERT Transcripts” value in data set [1] came to 14.79. With `Oc1c(C(Nc2ccccc2Cl)c2ccccn2)ccc2cccnc12` (stereo not drawn) [Compound 1095], in data set [1], the “Average Number of hTERT Transcripts” value is 3.46. Still for that read-out and setting: under `CCCCC(=O)NC(c1ccc(Cl)cc1)c1cc([N+](=O)[O-])c2cccnc2c1O` (stereo not drawn) [Compound 1054] stands 8.59; under `CC(C)C(=O)NC(c1ccc(Cl)cc1Cl)c1ccc2cccnc2c1O` (stereo not drawn) [Compound 1042], 10.53.

For the origin of these results see patent publication US12168019B1, “8-hydroxy quinoline derivatives for enhancing telomerase reverse transcriptase (TERT) expression” (Sierra Sciences, Inc., priority 2010, dated 2024).
